Source: US4482565A, “β-Lactam-containing antibacterial agents and β-lactamase inhibitors” (Farmitalia Carlo Erba S.p.A., priority 1981, dated 1984)
Read-outs that look alike come from different tables or passages of the source.

How the values were obtained:
Assay type in all cases: cell-based
[1] = tested on: Staphylococcus aureus Smith; experiment: in vitro antibacterial activity (MIC); conditions: collection strain, read-out: MIC (minimal inhibitory concentration)
[2] = tested on: Klebsiella pneumoniae ATCC 10031; experiment: in vitro antibacterial activity (MIC), second listing of the strain; conditions: ATCC10031, collection strain (second listing), read-out: MIC (minimal inhibitory concentration)
Salmonella typhimurium [3] = experiment: in vitro antibacterial activity (MIC), collection strain; conditions: Salmonella enterica, read-out: MIC (minimal inhibitory concentration)
[4] = tested on: Enterobacter cloacae P 99; experiment: in vitro antibacterial activity (MIC); conditions: P99, read-out: MIC (minimal inhibitory concentration)
Salmonella derby F14 = experiment: in vitro antibacterial activity (MIC); conditions: Salmonella enterica, read-out: MIC (minimal inhibitory concentration)
Proteus mirabilis = experiment: in vitro antibacterial activity (MIC), collection strain; conditions: read-out: MIC (minimal inhibitory concentration)
[5] = tested on: Klebsiella aerogenes ATCC 1082 E; experiment: in vitro antibacterial activity (MIC)
[6] = tested on: Klebsiella pneumoniae ATCC 10031; experiment: in vitro antibacterial activity (MIC); conditions: ATCC10031, Klebsiella pneumoniae ATCC 10031 (first listing), read-out: MIC (minimal inhibitory concentration)
[7] = tested on: Staphylococcus aureus PV2; experiment: in vitro antibacterial activity (MIC); conditions: read-out: MIC (minimal inhibitory concentration)
[8] = tested on: Salmonella Saint Paul F20; experiment: in vitro antibacterial activity (MIC); conditions: read-out: MIC (minimal inhibitory concentration)
Escherichia coli R 997 = experiment: in vitro antibacterial activity (MIC); conditions: R997, read-out: MIC (minimal inhibitory concentration)
[9] = tested on: Staphylococcus aureus 209P; experiment: in vitro antibacterial activity (MIC); conditions: collection strain, read-out: MIC (minimal inhibitory concentration)
Salmonella panamae F15 = experiment: in vitro antibacterial activity (MIC)
[10] = tested on: Pseudomonas aeruginosa ATCC 2598; experiment: in vitro antibacterial activity (MIC); conditions: ATCC2598, collection strain, read-out: MIC (minimal inhibitory concentration)
Pseudomonas aeruginosa = experiment: in vitro antibacterial activity (MIC); conditions: read-out: MIC (minimal inhibitory concentration)
Escherichia coli R 46 = experiment: in vitro antibacterial activity (MIC)
Shigella flexneri = experiment: in vitro antibacterial activity (MIC); conditions: read-out: MIC (minimal inhibitory concentration)
Description: A series of tests was carried out in vitro to compare the activities of (5R)-acetoxymethyl-2-acetoxymethyl-2-penum-3-carboxylate (Laboratory code FCE/20077/B40/341), (5R) acetoxymethyl-2-[(1-methyl-1H-tetrazol-5-yl)-thiomethyl]-2-penem-3-carboxylate (compound A), three reference compounds (ampicillin, cefoxitin, and thienamycin), and compound 387, which is (5R)-2-acetoxymethyl-6-(1-hydroxyethyl)-2-penem-3-carboxylic acid. The acetoxymethoxy ester of compound 387 is prepared in Example 51 and the sodium salt of the acid is prepared in Example 98 infra. Table 1 below reports the results of the above assays as MIC (minimal inhibitory concentration).

Escherichia coli B Cef R = experiment: in vitro antibacterial activity (MIC); conditions: read-out: MIC (minimal inhibitory concentration)
Salmonella typhimurium [11] = experiment: in vitro antibacterial activity (MIC); conditions: Salmonella enterica, Salmonella typhimurium (first listing), read-out: MIC (minimal inhibitory concentration)
Escherichia coli R 6 K = experiment: in vitro antibacterial activity (MIC); conditions: R6K, read-out: MIC (minimal inhibitory concentration)
[12] = tested on: Pseudomonas aeruginosa FI; experiment: in vitro antibacterial activity (MIC); conditions: collection strain, read-out: MIC (minimal inhibitory concentration)
Escherichia coli R 57 B = experiment: in vitro antibacterial activity (MIC); conditions: R57B, read-out: MIC (minimal inhibitory concentration)
Enterobacter sp V19 = experiment: in vitro antibacterial activity (MIC); conditions: read-out: MIC (minimal inhibitory concentration)
Enterobacter cloacae 214 = experiment: in vitro antibacterial activity (MIC); conditions: lactamase producer, read-out: MIC (minimal inhibitory concentration)
[13] = tested on: Staphylococcus aureus 153; experiment: in vitro antibacterial activity (MIC); conditions: lactamase producer, read-out: MIC (minimal inhibitory concentration)
Escherichia coli RP 1 = experiment: in vitro antibacterial activity (MIC); conditions: RP1, read-out: MIC (minimal inhibitory concentration)
Proteus mirabilis V15 = experiment: in vitro antibacterial activity (MIC); conditions: read-out: MIC (minimal inhibitory concentration)
Streptococcus pyogenes = experiment: in vitro antibacterial activity (MIC); conditions: read-out: MIC (minimal inhibitory concentration)
Escherichia coli V23 = experiment: in vitro antibacterial activity (MIC); conditions: read-out: MIC (minimal inhibitory concentration)
Escherichia coli RGN 238 = experiment: in vitro antibacterial activity (MIC); conditions: RGN238, lactamase producer, read-out: MIC (minimal inhibitory concentration)
[14] = tested on: Salmonella montevideo F16; experiment: in vitro antibacterial activity (MIC); conditions: Salmonella enterica, read-out: MIC (minimal inhibitory concentration)
Escherichia coli B = experiment: in vitro antibacterial activity (MIC); conditions: read-out: MIC (minimal inhibitory concentration)
Klebsiella sp. R2 = experiment: in vitro antibacterial activity (MIC); conditions: read-out: MIC (minimal inhibitory concentration)
Escherichia coli P 453 = experiment: in vitro antibacterial activity (MIC)
Proteus vulgaris V15 = experiment: in vitro antibacterial activity (MIC); conditions: read-out: MIC (minimal inhibitory concentration)
Proteus mirabilis 525 = experiment: in vitro antibacterial activity (MIC)
[15] = tested on: Salmonella abortivoequina; experiment: in vitro antibacterial activity (MIC); conditions: collection strain, read-out: MIC (minimal inhibitory concentration)
Escherichia coli V14 = experiment: in vitro antibacterial activity (MIC); conditions: read-out: MIC (minimal inhibitory concentration)
[16] = in vitro, Salmonella panamae F15, read-out: MIC (minimal inhibitory concentration)
[17] = in vitro, Escherichia coli B, collection strain
[18] = in vitro, Proteus mirabilis 525, read-out: MIC (minimal inhibitory concentration)

Measured: MIC

CC1(C)S[C@@H]2[C@H](NC(=O)[C@H](N)c3ccccc3)C(=O)N2[C@H]1C(=O)O [Ampicillin]
1.56 µg/mL: [13] | Proteus vulgaris V15 | Escherichia coli V14
> 100 µg/mL: [4] | Proteus mirabilis; in vitro, collection strain | [5]; ATCC1082, in vitro, Klebsiella aerogenes ATCC 1082 E, lactamase producer, read-out: MIC (minimal inhibitory concentration) | Escherichia coli R 997 | [10] | Escherichia coli B Cef R | Escherichia coli R 6 K | [12] | Enterobacter sp V19 | Enterobacter cloacae 214 | Escherichia coli RP 1 | Escherichia coli RGN 238 | Escherichia coli P 453; P453, in vitro, Escherichia coli P 453, lactamase producer, read-out: MIC (minimal inhibitory concentration)
0.39 µg/mL: Escherichia coli B; [17] | Proteus mirabilis 525; [18]
3.12 µg/mL: Streptococcus pyogenes; in vitro | Escherichia coli V23
0.78 µg/mL: Salmonella typhimurium [3]; in vitro, Salmonella Typhimurium, collection strain (second listing) | Salmonella derby F14 | [8] | Salmonella panamae F15; [16] | Salmonella typhimurium [11] | [14]
≤ 0.19 µg/mL: [1] | [7] | [9] | Shigella flexneri | Proteus mirabilis V15
50 µg/mL: [6] | Klebsiella sp. R2
0.19 µg/mL: [15]
25 µg/mL: [2] | Pseudomonas aeruginosa; in vitro | Escherichia coli R 46; R46, in vitro, Escherichia coli R 46, lactamase producer, read-out: MIC (minimal inhibitory concentration) | Escherichia coli R 57 B; in vitro, Escherichia coli R 57 B, lactamase producer

CO[C@@]1(NC(=O)Cc2cccs2)C(=O)N2C(C(=O)O)=C(COC(N)=O)CS[C@@H]21 [Cefoxitin]
1.56 µg/mL: Salmonella typhimurium [3]; TYPHIMURIUM | Proteus mirabilis | Salmonella panamae F15; Salmonella, F15, read-out: MIC (minimal inhibitory concentration) | Escherichia coli R 46; Escherichia coli, R46, read-out: MIC (minimal inhibitory concentration) | Escherichia coli R 57 B; Escherichia coli | Escherichia coli RP 1 | Streptococcus pyogenes | Escherichia coli B; Escherichia coli | Escherichia coli P 453; Escherichia coli, P453, read-out: MIC (minimal inhibitory concentration) | Proteus mirabilis 525; Proteus mirabilis, 525, read-out: MIC (minimal inhibitory concentration)
3.12 µg/mL: Salmonella derby F14 | [8] | Salmonella typhimurium [11] | Escherichia coli RGN 238 | [14] | Escherichia coli V14
12.5 µg/mL: Enterobacter sp V19 | Escherichia coli V23 | Klebsiella sp. R2
0.78 µg/mL: [1] | [2] | [6] | [7] | [9] | Shigella flexneri | [13] | Proteus mirabilis V15 | Proteus vulgaris V15 | [15]
100 µg/mL: [4]
> 100 µg/mL: [10] | Escherichia coli B Cef R | Enterobacter cloacae 214
3.1 µg/mL: Escherichia coli R 6 K
6.25 µg/mL: [5]; Klebsiella aerogenes, ATCC1082, read-out: MIC (minimal inhibitory concentration) | Escherichia coli R 997 | Pseudomonas aeruginosa | [12]

CC(=O)OCOC(=O)C1=C(CSc2nnnn2C)S[C@@H]2CC(=O)N12 [Compound A, (5R)-Acetoxymethyl-2-[(1-methyl-1-H-tetrazol-5-yl)-thiomethyl]-2-penem-3-carboxylate]
3.12 µg/mL: [6]
0.39 µg/mL: [1] | [9] | Pseudomonas aeruginosa; in vitro | Shigella flexneri
0.78 µg/mL: Salmonella derby F14 | [7] | [8] | Salmonella panamae F15; [16] | Salmonella typhimurium [11] | [13] | Proteus mirabilis V15 | Streptococcus pyogenes; in vitro | Escherichia coli V23 | [14] | Escherichia coli B; [17] | Proteus mirabilis 525; [18] | Escherichia coli V14
> 100 µg/mL: Enterobacter sp V19
6.25 µg/mL: Proteus vulgaris V15
